Reference: patent publication EP4617278A1, “NUCLEOTIDE ANALOG, AND COMPOSITION AND USE THEREOF” (priority 2022, dated 2024)

Each substance was assayed on RSV A2 virus (assay: RSV CPE assay). Conditions: read-out: RSV A2 (Hep-2 cell) EC50; HEp-2 cells, RSV A2 virus, 5 days, CCK8.
“(2R,3R,4R,5R)-2-(4-aminopyrrolo[2,1-f][1,2,4]triazin-7-yl)-2-cyano-5-((((S)-(((S)-1,4-bicyclopentyloxy-1,4-dioxobutan-2-yl)amino)(phenoxy)phosphoryl)oxy)methyl)tetrahydrofuran-3,4-diyl dipropionate [Compound 59b]” showed an EC50 of less than 100 nM. In the case of “(2R,3R,4R,5R)-2-(4-aminopyrrolo[2,1-f][1,2,4]triazin-7-yl)-2-cyano-5-((((S)-(((S)-1,4-dicyclobutoxy-1,4-dioxobutan-2-yl)amino)(phenoxy)phosphoryl)oxy)methyl)tetrahydrofuran-3,4-diyl diacetate [Compound 55b]”, the EC50 is reported as 100 to 200 nM. “(2R,3R,4R,5R)-2-(4-aminopyrrolo[2,1-f][1,2,4]triazin-7-yl)-2-cyano-5-((((S)-(((S)-1,4-dicyclobutoxy-1,4-dioxobutan-2-yl)amino)(phenoxy)phosphoryl)oxy)methyl)tetrahydrofuran-3,4-diyl dipropionate [Compound 56b]” was tested, and the EC50 was 100 to 200 nM. For “(2R,3R,4R,5R)-2-(4-aminopyrrolo[2,1-f][1,2,4]triazin-7-yl)-2-cyano-5-((((S)-(((S)-1-(2-ethylbutoxy)-1-oxopropan-2-yl)amino)(((isopropoxycarbonyl)oxy)methoxy)phosphoryl)oxy)methyl)tetrahydrofuran-3,4-diyl diacetate [Compound 5b]”, the EC50 was 100 to 200 nM. Work on “(2R,3R,4R,5R)-2-(4-aminopyrrolo[2,1-f][1,2,4]triazin-7-yl)-2-cyano-5-((((S)-(((S)-1-isopropoxy-1-oxopropan-2-yl)amino)(((isopropoxycarbonyl)oxy)methoxy)phosphoryl)oxy)methyl)tetrahydrofuran-3,4-diyl diacetate [Compound 1b]” yielded an EC50 of 100 to 200 nM. For “(2R,3R,4R,5R)-2-(4-aminopyrrolo[2,1-f][1,2,4]triazin-7-yl)-5-((((bis(((isopropoxycarbonyl)oxy)methoxy))phosphoryl)oxy)methyl)-2-cyanotetrahydrofuran-3,4-diyldiisopropyl bis(carbonate) [Compound 28]”, the EC50 was greater than 1000 nM.
